In ChEMBL document CHEMBL5465560, “Selectivity Literature for EUbOPEN Chemogenomic Library” (2024):

Experiments:
[1] = biological target: Cyclin-dependent kinase 15 (Homo sapiens) (UniProt Q96Q40); details: at 10 µM
[2] = biological target: T1, Mitogen-activated protein kinase kinase kinase 5 (Homo sapiens) (UniProt Q99683); experiment: Selectivity interaction (ActivX KiNativ screen (kinase selectivity in THP-1 cell lysates)) EUB0000639a MAP3K5; assay type: subcellular; details: lysate
T1 sequence (whole entry): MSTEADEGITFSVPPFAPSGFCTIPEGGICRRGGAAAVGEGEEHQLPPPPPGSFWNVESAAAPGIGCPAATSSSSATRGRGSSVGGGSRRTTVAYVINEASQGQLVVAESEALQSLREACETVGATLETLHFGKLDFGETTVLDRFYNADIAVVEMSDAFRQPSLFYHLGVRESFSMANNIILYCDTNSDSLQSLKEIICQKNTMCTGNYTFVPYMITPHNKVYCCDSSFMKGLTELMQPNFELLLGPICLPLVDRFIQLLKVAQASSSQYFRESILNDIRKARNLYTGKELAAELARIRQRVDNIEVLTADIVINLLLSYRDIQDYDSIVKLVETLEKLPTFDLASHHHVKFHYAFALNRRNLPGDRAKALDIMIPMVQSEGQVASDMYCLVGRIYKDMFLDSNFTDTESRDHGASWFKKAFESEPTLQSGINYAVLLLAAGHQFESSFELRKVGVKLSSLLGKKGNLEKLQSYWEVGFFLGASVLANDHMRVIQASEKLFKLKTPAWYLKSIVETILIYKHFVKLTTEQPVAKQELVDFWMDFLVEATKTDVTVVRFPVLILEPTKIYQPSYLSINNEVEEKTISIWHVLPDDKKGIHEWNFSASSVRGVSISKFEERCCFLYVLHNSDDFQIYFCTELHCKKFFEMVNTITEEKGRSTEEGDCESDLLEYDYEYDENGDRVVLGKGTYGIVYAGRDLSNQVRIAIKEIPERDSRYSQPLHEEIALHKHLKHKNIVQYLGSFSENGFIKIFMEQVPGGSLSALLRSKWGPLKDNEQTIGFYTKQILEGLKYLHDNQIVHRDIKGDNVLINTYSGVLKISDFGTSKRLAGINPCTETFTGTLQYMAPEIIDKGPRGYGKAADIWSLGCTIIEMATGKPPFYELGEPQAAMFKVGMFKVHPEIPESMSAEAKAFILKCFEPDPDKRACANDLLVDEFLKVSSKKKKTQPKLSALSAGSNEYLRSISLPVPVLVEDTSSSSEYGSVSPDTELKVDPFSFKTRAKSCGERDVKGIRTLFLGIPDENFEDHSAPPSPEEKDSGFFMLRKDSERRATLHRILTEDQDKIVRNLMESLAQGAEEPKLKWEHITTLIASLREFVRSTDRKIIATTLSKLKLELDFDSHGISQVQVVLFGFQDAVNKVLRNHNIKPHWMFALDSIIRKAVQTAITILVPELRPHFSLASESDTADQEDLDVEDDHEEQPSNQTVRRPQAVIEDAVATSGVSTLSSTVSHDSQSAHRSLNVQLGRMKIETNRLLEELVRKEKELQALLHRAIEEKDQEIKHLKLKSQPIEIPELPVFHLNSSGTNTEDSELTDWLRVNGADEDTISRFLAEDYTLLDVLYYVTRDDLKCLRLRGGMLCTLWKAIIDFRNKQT

[3] = biological target: T2, Membrane-associated tyrosine- and threonine-specific cdc2-inhibitory kinase (Homo sapiens) (UniProt Q99640); experiment: Selectivity interaction (KinomeScan (DiscoverX)) EUB0000618a PKMYT1; details: at 10 µM
T2 sequence (whole entry): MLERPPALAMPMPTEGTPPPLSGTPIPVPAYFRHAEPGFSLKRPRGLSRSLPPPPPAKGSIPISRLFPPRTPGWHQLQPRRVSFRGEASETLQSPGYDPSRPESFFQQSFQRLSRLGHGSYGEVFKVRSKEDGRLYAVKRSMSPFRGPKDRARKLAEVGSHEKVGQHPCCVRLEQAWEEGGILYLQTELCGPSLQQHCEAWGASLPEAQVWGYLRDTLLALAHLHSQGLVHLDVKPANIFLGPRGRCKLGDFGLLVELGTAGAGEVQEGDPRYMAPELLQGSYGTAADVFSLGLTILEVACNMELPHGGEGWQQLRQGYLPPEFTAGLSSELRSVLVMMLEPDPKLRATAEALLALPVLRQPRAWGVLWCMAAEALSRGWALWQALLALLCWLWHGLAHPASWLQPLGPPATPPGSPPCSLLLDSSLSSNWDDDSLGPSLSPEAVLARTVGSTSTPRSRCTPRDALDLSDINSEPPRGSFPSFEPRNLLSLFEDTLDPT

[4] = biological target: T3, Ephrin type-B receptor 1 (Homo sapiens) (UniProt P54762); experiment: Selectivity interaction (KinomeScan (DiscoverX)) EUB0000607a EPHB1; details: at 10 µM
T3 sequence (whole entry): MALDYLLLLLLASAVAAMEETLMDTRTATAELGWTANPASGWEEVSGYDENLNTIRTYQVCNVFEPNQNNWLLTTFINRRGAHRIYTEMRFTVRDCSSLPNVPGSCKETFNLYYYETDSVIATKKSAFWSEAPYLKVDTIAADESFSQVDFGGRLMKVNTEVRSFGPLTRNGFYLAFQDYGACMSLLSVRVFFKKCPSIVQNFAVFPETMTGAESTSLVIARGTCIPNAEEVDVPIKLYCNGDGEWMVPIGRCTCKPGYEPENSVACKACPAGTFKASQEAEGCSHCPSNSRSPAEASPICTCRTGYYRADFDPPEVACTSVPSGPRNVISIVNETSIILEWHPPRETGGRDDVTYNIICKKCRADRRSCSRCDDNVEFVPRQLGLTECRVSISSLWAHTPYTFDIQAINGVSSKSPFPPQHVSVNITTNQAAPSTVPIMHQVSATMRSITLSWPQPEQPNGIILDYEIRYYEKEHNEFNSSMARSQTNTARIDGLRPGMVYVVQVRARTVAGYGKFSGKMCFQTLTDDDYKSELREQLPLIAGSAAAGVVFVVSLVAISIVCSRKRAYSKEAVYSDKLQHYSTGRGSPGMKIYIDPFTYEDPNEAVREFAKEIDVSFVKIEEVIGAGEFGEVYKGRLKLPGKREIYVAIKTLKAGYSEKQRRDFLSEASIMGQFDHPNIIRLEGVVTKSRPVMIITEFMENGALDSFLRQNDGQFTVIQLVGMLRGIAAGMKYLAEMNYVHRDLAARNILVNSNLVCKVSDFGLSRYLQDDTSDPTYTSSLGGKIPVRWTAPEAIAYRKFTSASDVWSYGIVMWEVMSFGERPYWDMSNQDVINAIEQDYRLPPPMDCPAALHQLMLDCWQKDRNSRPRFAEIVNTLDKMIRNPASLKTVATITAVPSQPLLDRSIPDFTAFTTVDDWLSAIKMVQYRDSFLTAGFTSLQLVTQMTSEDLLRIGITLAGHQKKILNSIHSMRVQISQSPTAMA

Cyclin-dependent kinase 15 (Homo sapiens), sequence (Q96Q40 whole entry): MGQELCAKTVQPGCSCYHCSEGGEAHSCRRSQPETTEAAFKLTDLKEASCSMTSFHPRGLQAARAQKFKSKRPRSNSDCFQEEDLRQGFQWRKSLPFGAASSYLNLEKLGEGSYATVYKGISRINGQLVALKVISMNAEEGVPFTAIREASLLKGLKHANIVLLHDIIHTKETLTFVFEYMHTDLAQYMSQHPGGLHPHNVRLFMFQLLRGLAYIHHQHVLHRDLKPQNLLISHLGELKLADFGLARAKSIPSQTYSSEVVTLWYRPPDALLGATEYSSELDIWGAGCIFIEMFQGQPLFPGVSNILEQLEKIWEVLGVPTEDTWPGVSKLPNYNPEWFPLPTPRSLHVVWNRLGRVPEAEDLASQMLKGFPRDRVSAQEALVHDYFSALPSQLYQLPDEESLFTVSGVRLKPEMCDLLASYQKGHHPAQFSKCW

SMILES: Cc1cc([C@@H](C)Nc2ccccc2C(=O)O)c2nc(N3CCOCC3)cc(=O)n2c1 [AZD-6482]
- % of control [1]: 100%

SMILES: CC[C@@H]1[C@H](F)C(=O)N[C@@H]1COc1nccc2cc(C(N)=O)c(OC)cc12 [ZIMLOVISERTIB]
- % of inhibition ([2]; at 0.01 µM): -12.1%
- % of inhibition ([2]; at 0.04 µM): -3.2%
- % of inhibition ([2]; at 0.2 µM): 0%
- % of inhibition ([2]; at 1 µM): -6.5%
- % of inhibition ([2]; at 5 µM): -21.9%

SMILES: O[C@H]1CC[C@H](Nc2ncc3nc(Nc4c(F)cc(F)cc4F)n([C@H]4CCOC4)c3n2)CC1
- % of control [3]: 92%

SMILES: CNC(=O)Nc1ccc(-c2nc(N3CC4CCC(C3)O4)c3cnn(C4CCC5(CC4)OCCO5)c3n2)cc1
- % of control [4]: 90%
